Reference: patent US12403135B2, “4H-pyrrolo[3,2-c]pyridin-4-one derivatives” (Bayer Aktiengesellschaft, priority 2019, dated 2025)
pIC50: −log10 of the molar value.

Key:
Type in all cases: cell-based
[1] = test system: Ba/F3-EGFR-delLREA cells (EGFR del19/delLREA (746-750), E746_A750del); assay: BA/F3 EGFR del19/delLREA (746-750) (E746_A750del) cell survival assay, Cell Titer-Glo; conditions: Table 10, classical activating and uncommon EGFR mutations, read-out: BA/F3 (EGFR E746_A750del) IC50
Protocol: (§1) Plates were incubated at 37° C. for 48 h. Retrovirus was harvested by filtering the media supernatant through a 0.45 μm filter.
(§2) Ba/F3 cells purchased from DSMZ were grown in RPMI+10% FBS+10 ng/mL IL-3 and infected with filtered retroviral supernatant at a 1:2 dilution. Polybrene was added to a concentration of 8 μg/mL, plates were spun for 90 min, and incubated overnight at 37° C. 2 μg/mL puromycin was added to the infected cells 24 h after infection and cells were continually grown in the presence of puromycin and 10 ng/mL IL-3. Following stably expressing Ba/F3 cell lines were generated: Ba/F3-EGFR-L858R, Ba/F3-EGFR-delLREA, (Ba/F3-vector-control).
(§3) For cell survival assays, Ba/F3 cells were grown to a density of 1-2 million cells per mL, spun down and resuspended in media without IL-3, and replated at a concentration 200,000-500,000 cells per mL. The cells ectopically expressing pBABEpuro empty vector were plated with 10 ng/mL IL-3.
(§4) 2 days later, cells were plated in 50 μL in a 384 well plate at a concentration of 4000 cells per well for cells assayed in the absence of IL-3 and 2000 cells per well for cells (pBABE puro empty vector) assayed in the presence of IL-3. 100 nL of compound was added to each well using a 100 nL pin head, and plates were incubated at 37° C. for 48 h.
(§5) Cell viability was measured by adding 20 μL of Cell Titer-Glo Luminescent Cell Viability Reagent diluted 1:3 in PBS. Plates were sealed with Perkin Elmer Top-Seal, inverted several times to mix, and immediately centrifuged at 1000 rpm for 2 min. Plates were incubated in low light conditions for 8-10 min and luminescence was measured.

Ba/F3-EGFR-L858R cells = Ba/F3-EGFR-L858R cells (Homo sapiens, UniProt P00533, L858R, cells depend on it); assay: BA/F3 EGFR L858R cell survival assay, Cell Titer-Glo; conditions: Table 10; classical activating and uncommon EGFR mutations; read-out: BA/F3 (EGFR L858R) IC50
Protocol: as §1, §2, §3, §4, §5

[2] = target: Ba/F3-EGFR-D770_N771 insNPG cells (Homo sapiens, UniProt P00533, INS772GNP, cells depend on it); assay: BA/F3 (insNPG) proliferation, EGFR Exon20 insertion mutation; conditions: Table 9; EGFR Exon20 insertion mutations; read-out: BA/F3 (insNPG) IC50
Protocol: as §1
as §2, with “Ba/F3-EGFR-V769_D770 insASV, Ba/F3-EGFR-D770_N771 insNPG, Ba/F3-EGFR-N771_P772 insH, Ba/F3-EGFR-H773_V774 insNPH, Ba/F3-EGFR-D770_N771 insSVD C797S, Ba/F3-EGFR-E746_A750del C797S, Ba/F3-EGFR-L858R C797S, Ba/F3-EGFR L861Q and Ba/F3-ERBB2-A775_G776insYVMA” for “Ba/F3-EGFR-L858R, Ba/F3-EGFR-delLREA,”

[3] = target: Ba/F3-EGFR-V769_D770 insASV cells (Homo sapiens, UniProt P00533, DUP767-769, cells depend on it); assay: BA/F3 (ASV) proliferation, EGFR Exon20 insertion mutation; conditions: Table 9; EGFR Exon20 insertion mutations; read-out: BA/F3 (ASV) IC50
Protocol: as §1
as §2, with “Ba/F3-EGFR-V769_D770 insASV, Ba/F3-EGFR-D770_N771 insNPG, Ba/F3-EGFR-N771_P772 insH, Ba/F3-EGFR-H773_V774 insNPH, Ba/F3-EGFR-D770_N771 insSVD C797S, Ba/F3-EGFR-E746_A750del C797S, Ba/F3-EGFR-L858R C797S, Ba/F3-EGFR L861Q and Ba/F3-ERBB2-A775_G776insYVMA” for “Ba/F3-EGFR-L858R, Ba/F3-EGFR-delLREA,”

Ba/F3-EGFR L861Q cells = assay: BA/F3 (EGFR L861Q) proliferation, uncommon EGFR mutation; conditions: Table 10, classical activating and uncommon EGFR mutations
Protocol: as §1
as §2, with “Ba/F3-EGFR-V769_D770 insASV, Ba/F3-EGFR-D770_N771 insNPG, Ba/F3-EGFR-N771_P772 insH, Ba/F3-EGFR-H773_V774 insNPH, Ba/F3-EGFR-D770_N771 insSVD C797S, Ba/F3-EGFR-E746_A750del C797S, Ba/F3-EGFR-L858R C797S, Ba/F3-EGFR L861Q and Ba/F3-ERBB2-A775_G776insYVMA” for “Ba/F3-EGFR-L858R, Ba/F3-EGFR-delLREA,”

[4] = test system: Ba/F3-EGFR-D770_N771 insSVD C797S cells; assay: BA/F3 (EGFR D770_N771 insSVD C797S) proliferation, acquired resistance; conditions: Ba/F3 EGFR-D770-N771ins_SVD; Table 11; acquired resistance space
Protocol: as §1
as §2, with “Ba/F3-EGFR-V769_D770 insASV, Ba/F3-EGFR-D770_N771 insNPG, Ba/F3-EGFR-N771_P772 insH, Ba/F3-EGFR-H773_V774 insNPH, Ba/F3-EGFR-D770_N771 insSVD C797S, Ba/F3-EGFR-E746_A750del C797S, Ba/F3-EGFR-L858R C797S, Ba/F3-EGFR L861Q and Ba/F3-ERBB2-A775_G776insYVMA” for “Ba/F3-EGFR-L858R, Ba/F3-EGFR-delLREA,”

[5] = test system: Ba/F3-EGFR-E746_A750del C797S cells; assay: BA/F3 (EGFR E746_A750del C797S) proliferation, acquired resistance; conditions: Table 11, acquired resistance space
Protocol: as §1
as §2, with “Ba/F3-EGFR-V769_D770 insASV, Ba/F3-EGFR-D770_N771 insNPG, Ba/F3-EGFR-N771_P772 insH, Ba/F3-EGFR-H773_V774 insNPH, Ba/F3-EGFR-D770_N771 insSVD C797S, Ba/F3-EGFR-E746_A750del C797S, Ba/F3-EGFR-L858R C797S, Ba/F3-EGFR L861Q and Ba/F3-ERBB2-A775_G776insYVMA” for “Ba/F3-EGFR-L858R, Ba/F3-EGFR-delLREA,”

[6] = test system: Ba/F3-EGFR-L858R C797S cells; assay: BA/F3 (EGFR L858R C797S) proliferation, acquired resistance; conditions: Table 11, acquired resistance space
Protocol: as §1
as §2, with “Ba/F3-EGFR-V769_D770 insASV, Ba/F3-EGFR-D770_N771 insNPG, Ba/F3-EGFR-N771_P772 insH, Ba/F3-EGFR-H773_V774 insNPH, Ba/F3-EGFR-D770_N771 insSVD C797S, Ba/F3-EGFR-E746_A750del C797S, Ba/F3-EGFR-L858R C797S, Ba/F3-EGFR L861Q and Ba/F3-ERBB2-A775_G776insYVMA” for “Ba/F3-EGFR-L858R, Ba/F3-EGFR-delLREA,”

[7] = target: Ba/F3-ERBB2-A775_G776insYVMA cells (Homo sapiens, UniProt P04626, DUP772-775, cells depend on it); assay: BA/F3 (ERBB2 A775_G776 insYVMA) proliferation; conditions: Table 12; read-out: BA/F3 (ERBB2 A775_G776 insYVMA) IC50
Protocol: as §1
as §2, with “Ba/F3-EGFR-V769_D770 insASV, Ba/F3-EGFR-D770_N771 insNPG, Ba/F3-EGFR-N771_P772 insH, Ba/F3-EGFR-H773_V774 insNPH, Ba/F3-EGFR-D770_N771 insSVD C797S, Ba/F3-EGFR-E746_A750del C797S, Ba/F3-EGFR-L858R C797S, Ba/F3-EGFR L861Q and Ba/F3-ERBB2-A775_G776insYVMA” for “Ba/F3-EGFR-L858R, Ba/F3-EGFR-delLREA,”

PC9 cells (EGFRex19del) = assay: PC9 cell proliferation, Cell Titer Glo, 72 h
Protocol: (§6) PC9 cells were purchased from ATCC. 400 PC9 cells per well were seeded in growth medium (DMEM, 10% FCS) in a 384-well plate (CORNING #3571). Seed reference plate for time zero determination on the same day. All plates were incubated overnight at 37° C. After 24 hours, test compound were added in 7-step dilution using HP Compound printer and incubated at 37° C. for 72 h. After 3 days, 30 μL/well CTG solution (Promega Cell Titer Glo solution; catalog #G755B and G756B) were added to each well, incubated for 30 minutes and the plate were read on PheraStar. Proliferation is calculated after subtracting time zero luminescence values from day 4 values and comparing to untreated wells. The IC50 values were determined using the four parameter fit.

[8] = test system: HCC-827 cells (EGFRex19del); assay: HCC-827 cell proliferation, Cell Titer Glo, 72 h; conditions: Homo sapiens
Protocol: as §6, with “HCC-827 cells” for “PC9 cells”, “[…]” for “400 PC9”, “medium (RPMI1640,” for “medium (DMEM,”, “wells.” for “wells. The IC50 values were determined using the four parameter fit.”
The IC50 values were determined using the four parameter fit.

[9] = Homo sapiens, PC-9, 72 h, Table 12, several values per example
[10] = HCC827, 72 h, Table 12, several values per example
[11] = Homo sapiens, PC-9, Table 12, several values per example
[12] = HCC827, Table 12, several values per example

Sequence of Ba/F3-ERBB2-A775_G776insYVMA cells (P04626 with tags, fused parts or gaps DUP772-775): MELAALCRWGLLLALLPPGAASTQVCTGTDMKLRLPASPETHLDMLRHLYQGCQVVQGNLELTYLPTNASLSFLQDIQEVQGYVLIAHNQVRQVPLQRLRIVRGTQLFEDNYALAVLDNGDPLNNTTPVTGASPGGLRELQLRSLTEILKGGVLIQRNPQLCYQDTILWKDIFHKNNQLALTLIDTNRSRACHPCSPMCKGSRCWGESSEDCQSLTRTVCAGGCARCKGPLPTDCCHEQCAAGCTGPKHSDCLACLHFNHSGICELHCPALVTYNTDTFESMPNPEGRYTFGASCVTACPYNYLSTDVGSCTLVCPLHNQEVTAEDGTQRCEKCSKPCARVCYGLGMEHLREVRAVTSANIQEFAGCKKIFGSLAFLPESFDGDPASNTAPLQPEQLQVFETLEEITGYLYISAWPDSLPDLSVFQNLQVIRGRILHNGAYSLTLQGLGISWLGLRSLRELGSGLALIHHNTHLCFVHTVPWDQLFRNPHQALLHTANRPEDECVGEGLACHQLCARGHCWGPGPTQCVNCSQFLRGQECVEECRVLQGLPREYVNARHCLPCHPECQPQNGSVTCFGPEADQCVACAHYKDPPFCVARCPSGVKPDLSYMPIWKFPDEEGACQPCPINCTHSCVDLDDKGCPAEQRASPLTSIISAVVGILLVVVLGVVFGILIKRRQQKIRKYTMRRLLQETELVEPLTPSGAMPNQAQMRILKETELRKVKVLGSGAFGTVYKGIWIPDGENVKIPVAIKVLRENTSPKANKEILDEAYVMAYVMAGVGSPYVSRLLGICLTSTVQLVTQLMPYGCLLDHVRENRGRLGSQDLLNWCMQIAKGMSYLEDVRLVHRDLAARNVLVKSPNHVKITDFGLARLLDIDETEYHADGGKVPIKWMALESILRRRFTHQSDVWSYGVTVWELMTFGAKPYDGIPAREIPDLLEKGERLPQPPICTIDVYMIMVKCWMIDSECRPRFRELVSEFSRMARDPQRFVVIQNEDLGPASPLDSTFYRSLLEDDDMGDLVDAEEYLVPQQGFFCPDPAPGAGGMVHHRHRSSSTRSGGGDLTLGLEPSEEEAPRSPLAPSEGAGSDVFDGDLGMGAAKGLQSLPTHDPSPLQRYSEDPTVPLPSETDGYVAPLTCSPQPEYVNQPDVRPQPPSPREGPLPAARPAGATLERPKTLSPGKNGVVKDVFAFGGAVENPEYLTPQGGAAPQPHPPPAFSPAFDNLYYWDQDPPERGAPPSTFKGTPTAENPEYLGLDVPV
Sequence of Ba/F3-EGFR-D770_N771 insNPG cells (P00533 with tags, fused parts or gaps INS772GNP): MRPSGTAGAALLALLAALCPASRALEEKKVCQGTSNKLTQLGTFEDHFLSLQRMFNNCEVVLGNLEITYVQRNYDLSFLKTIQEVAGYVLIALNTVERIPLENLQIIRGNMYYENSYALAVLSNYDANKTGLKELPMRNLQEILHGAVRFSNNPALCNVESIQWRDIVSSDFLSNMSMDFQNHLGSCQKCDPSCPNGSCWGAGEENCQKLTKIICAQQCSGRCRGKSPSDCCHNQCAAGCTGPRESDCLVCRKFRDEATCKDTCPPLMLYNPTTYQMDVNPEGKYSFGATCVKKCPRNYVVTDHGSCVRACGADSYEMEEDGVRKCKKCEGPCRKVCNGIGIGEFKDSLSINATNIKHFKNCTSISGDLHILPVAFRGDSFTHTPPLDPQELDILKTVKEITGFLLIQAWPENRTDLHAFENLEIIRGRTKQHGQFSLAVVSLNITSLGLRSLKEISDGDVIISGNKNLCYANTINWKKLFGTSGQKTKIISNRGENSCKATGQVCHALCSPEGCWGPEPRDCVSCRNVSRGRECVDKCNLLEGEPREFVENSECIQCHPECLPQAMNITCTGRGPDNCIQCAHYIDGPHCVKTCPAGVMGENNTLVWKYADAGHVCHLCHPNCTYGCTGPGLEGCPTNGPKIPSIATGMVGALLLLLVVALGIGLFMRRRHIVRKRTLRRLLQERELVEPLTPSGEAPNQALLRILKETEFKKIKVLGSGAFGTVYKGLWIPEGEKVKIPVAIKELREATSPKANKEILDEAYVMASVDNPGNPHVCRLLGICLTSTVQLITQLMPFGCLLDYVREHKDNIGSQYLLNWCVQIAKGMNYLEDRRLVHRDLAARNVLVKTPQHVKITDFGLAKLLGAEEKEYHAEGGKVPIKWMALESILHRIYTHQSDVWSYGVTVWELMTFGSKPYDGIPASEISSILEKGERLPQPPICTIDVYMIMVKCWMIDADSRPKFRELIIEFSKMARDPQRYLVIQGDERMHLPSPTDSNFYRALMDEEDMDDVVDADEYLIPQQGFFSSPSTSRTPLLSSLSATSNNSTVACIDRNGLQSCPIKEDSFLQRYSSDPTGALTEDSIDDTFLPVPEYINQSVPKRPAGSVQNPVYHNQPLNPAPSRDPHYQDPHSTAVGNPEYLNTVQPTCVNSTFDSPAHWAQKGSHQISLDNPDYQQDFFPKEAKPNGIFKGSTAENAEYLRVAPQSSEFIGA
Sequence of Ba/F3-EGFR-V769_D770 insASV cells (P00533 with tags, fused parts or gaps DUP767-769): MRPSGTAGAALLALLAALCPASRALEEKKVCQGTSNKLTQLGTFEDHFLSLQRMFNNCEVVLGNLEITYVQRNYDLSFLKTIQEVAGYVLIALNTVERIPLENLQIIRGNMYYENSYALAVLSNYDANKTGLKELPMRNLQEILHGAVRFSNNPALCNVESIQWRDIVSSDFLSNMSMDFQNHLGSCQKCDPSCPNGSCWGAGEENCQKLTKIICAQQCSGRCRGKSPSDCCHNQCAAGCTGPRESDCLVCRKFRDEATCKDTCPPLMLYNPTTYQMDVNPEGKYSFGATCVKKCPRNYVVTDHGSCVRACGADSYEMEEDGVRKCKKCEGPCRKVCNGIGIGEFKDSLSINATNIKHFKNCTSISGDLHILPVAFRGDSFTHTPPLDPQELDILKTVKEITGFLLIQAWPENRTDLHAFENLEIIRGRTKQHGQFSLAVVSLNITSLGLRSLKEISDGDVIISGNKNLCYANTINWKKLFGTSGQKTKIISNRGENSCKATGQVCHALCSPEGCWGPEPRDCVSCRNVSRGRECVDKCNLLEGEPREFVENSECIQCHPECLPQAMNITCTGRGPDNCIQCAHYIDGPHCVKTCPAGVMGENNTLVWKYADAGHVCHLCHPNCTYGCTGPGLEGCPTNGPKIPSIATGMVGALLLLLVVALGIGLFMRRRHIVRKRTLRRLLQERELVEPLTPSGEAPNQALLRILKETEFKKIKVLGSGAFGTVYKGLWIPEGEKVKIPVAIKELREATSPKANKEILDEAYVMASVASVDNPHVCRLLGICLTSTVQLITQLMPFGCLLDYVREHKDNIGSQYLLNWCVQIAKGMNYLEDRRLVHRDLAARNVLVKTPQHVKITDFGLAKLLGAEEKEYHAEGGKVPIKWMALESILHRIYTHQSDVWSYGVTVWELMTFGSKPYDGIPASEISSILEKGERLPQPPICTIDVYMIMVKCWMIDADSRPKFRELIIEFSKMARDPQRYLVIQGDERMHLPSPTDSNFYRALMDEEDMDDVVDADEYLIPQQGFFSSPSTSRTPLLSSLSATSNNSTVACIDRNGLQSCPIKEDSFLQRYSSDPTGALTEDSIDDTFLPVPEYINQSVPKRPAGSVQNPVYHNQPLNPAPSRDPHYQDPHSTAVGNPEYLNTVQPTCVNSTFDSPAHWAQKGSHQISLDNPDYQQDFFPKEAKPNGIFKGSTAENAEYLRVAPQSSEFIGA
Sequence of Ba/F3-EGFR-L858R cells (P00533 whole entry L858R): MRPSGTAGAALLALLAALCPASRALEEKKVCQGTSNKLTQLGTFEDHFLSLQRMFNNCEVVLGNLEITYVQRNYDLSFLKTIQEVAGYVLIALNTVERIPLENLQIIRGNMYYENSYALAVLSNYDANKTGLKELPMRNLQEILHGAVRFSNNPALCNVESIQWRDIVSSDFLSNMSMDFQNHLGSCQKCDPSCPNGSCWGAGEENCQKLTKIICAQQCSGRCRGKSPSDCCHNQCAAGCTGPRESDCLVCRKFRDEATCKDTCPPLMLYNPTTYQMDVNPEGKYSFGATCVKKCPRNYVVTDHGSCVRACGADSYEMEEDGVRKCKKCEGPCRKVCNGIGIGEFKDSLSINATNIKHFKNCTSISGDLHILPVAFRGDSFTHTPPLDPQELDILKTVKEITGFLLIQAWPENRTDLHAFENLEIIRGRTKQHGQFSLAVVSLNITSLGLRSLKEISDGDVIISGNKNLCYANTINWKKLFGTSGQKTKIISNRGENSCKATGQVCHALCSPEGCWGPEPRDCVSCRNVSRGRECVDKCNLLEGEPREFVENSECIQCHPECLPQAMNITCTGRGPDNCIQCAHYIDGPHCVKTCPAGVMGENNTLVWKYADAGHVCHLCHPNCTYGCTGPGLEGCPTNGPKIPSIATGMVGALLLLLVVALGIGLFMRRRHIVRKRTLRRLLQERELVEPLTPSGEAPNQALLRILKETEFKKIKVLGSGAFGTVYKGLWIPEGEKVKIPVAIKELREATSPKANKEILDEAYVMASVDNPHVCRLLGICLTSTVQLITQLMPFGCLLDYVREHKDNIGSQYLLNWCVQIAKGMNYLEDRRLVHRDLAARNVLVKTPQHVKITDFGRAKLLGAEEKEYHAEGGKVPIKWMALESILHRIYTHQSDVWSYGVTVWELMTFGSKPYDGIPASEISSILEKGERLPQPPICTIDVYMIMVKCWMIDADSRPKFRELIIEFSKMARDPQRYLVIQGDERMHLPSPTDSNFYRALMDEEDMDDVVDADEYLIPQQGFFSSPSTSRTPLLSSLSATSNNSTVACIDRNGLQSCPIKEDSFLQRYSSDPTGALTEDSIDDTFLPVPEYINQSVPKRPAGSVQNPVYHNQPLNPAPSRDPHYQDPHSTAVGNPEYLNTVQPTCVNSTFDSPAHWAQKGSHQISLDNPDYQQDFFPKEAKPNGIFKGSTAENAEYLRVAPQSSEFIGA

Structure (SMILES) | pIC50 [1] | GI50 (Ba/F3-EGFR-L858R cells) [nM] | GI50 [2] [nM] | GI50 [3] [nM] | pIC50 (Ba/F3-EGFR L861Q cells) | pIC50 [4] | pIC50 [5] | pIC50 [6] | GI50 [7] [nM] | pIC50 (PC9 cells (EGFRex19del); [9]) | pIC50 [8, 10] | pIC50 (PC9 cells (EGFRex19del); Table 12, several values per example) | pIC50 (PC9 cells (EGFRex19del); [11]) | pIC50 [8, 12]
COc1c(Cl)cccc1Nc1c(-c2ccncc2OCC(C)(C)OC)[nH]c2c1C(=O)NCC2 [Example 33, 3-(3-chloro-2-methoxyanilino)-2-[3-(2-methoxy-2-methylpropoxy)pyridin-4-yl]-1,5,6,7-tetrahydro-4H-pyrrolo[3,2-c]pyridin-4-one] | 8.53 | 3.16 | 26.2 | 30.4 | 7.24 | 7.31 | 8.85 | 8.48 | 41.1 |  |  |  |  | 
COc1c(Cl)cccc1Nc1c(-c2ccncc2OC[C@@H]2CCCN2C)[nH]c2c1C(=O)NCC2 [Example 48, 3-(3-chloro-2-methoxyanilino)-2-(3-{[(2S)-1-methylpyrrolidin-2-yl]methoxy}pyridin-4-yl)-1,5,6,7-tetrahydro-4H-pyrrolo[3,2-c]pyridin-4-one] | 8.95 | 1.39 | 10 | 15.1 | 7.67 | 7.76 | 9.27 | 8.97 | 21.7 | 8.00 | > 8.52 |  |  | 
Cc1c(F)cccc1Nc1c(-c2ccncc2OC[C@@H]2CCCN2C)[nH]c2c1C(=O)NCC2 [Example 49, 3-(3-fluoro-2-methylanilino)-2-(3-{[(2S)-1-methylpyrrolidin-2-yl]methoxy}pyridin-4-yl)-1,5,6,7-tetrahydro-4H-pyrrolo[3,2-c]pyridin-4-one] | 7.94 | 22.7 | 115 | 284 | 6.75 | 6.70 | 8.52 | 8.11 | 231 | > 7.52 |  | 7.29 |  | 
COc1c(Cl)cccc1Nc1c(-c2ccncc2OC[C@@H]2CCCO2)[nH]c2c1C(=O)NCC2 [Example 66, 3-(3-chloro-2-methoxyanilino)-2-(3-{[(2S)-oxolan-2-yl]methoxy}pyridin-4-yl)-1,5,6,7-tetrahydro-4H-pyrrolo[3,2-c]pyridin-4-one] | > 9.82 | 0.685 | 5.57 | 6.4 | 8.01 | 7.82 | 9.54 | 8.91 | 6.62 |  |  |  | 9.03 | > 8.52
COc1c(Cl)cccc1Nc1c(-c2ccncc2OC[C@H]2CCCO2)[nH]c2c1C(=O)NCC2 [Example 67, 3-(3-chloro-2-methoxyanilino)-2-(3-{[(2R)-oxolan-2-yl]methoxy}pyridin-4-yl)-1,5,6,7-tetrahydro-4H-pyrrolo[3,2-c]pyridin-4-one] | 9.19 | 1.48 | 13.1 | 12.8 | 7.72 | 7.62 | 9.41 | 8.74 | 11.5 |  |  |  | 8.75 | > 8.52
COc1c(F)cccc1Nc1c(-c2ccncc2OC[C@@H](C)OC)[nH]c2c1C(=O)NCC2 [Example 92, 3-(3-fluoro-2-methoxyanilino)-2-{3-[(2R)-2-methoxypropoxy]pyridin-4-yl}-1,5,6,7-tetrahydro-4H-pyrrolo[3,2-c]pyridin-4-one] | 9.43 | 1.31 | 13.9 | 17.2 | 7.42 | 7.59 | 9.44 | 8.79 | 14.9 | 8.49 | > 8.52 |  |  | 
